# Reference: US20250388592A1 (REMYND N.V., priority 2022, published 2025)
# Test system: M17_3TAU(P301L) cells
# Assay: TAU-induced cytotoxicity (LDH) in the neuroblastoma tauopathy model
# Type: cell-based
# Conditions: Homo sapiens, 168 h, inhibition of TAU-induced toxicity, 7 days retinoic acid differentiation, LDH readout
# Text: A TAU expression plasmid was constructed by sub-cloning the cDNA encoding for human TAU-P301L protein, wherein proline at position 301 is substituted by a leucine residue, into mammalian expression vector pcDNA3.1 resulting in the plasmid pcDNA3.1-TAUP301L. Plasmids pcDNA3.1 and pcDNA3.1-TAU P301L were transfected into human neuroblastoma cells (BE-M17; ATCC No. CRL-2267™) using lipofectamine reagent and subsequently, independent clonal cell lines with the plasmids stably integrated into the genome were selected by antibiotic resistance selection (Geneticin (G418)), resulting in cell lines M17.pcDNA3 and M17_3TAUP301L. Expression of the TAUP301 L gene in the M17_3TAUP301 L cells was confirmed by Western blot analysis.
# Differentiation of the cells with RA leads to phosphorylation and subsequent aggregation of TAU, inducing a tauopathy in these cells. Cytotoxicity of cells was measured by quantification of lactate dehydrogenase (LDH) levels. In dead cells LDH is leaked out of the cells into the medium due to a loss of plasma-membrane integrity.
# Briefly, 3 days preceding the experiment pre-cultures of M17.pcDNA3 and M17_3TAU(P301L) cells were prepared, starting from a stock culture, at a density of 50.000-100.000 cells/cm2 in detection medium (Optimem Reduced Serum without phenol red (Gibco, Cat. 31985-047) supplemented with 1% fetal calf serum (FCS), 1 mM sodium pyruvate, 1×non-essential amino acids (NEAA), 500 μg/ml G418 and 0.5×antibiotic/antimycotic (ABAM)). At the day of the experiment these precultures were diluted to ˜[…] in detection medium without FCS and 60 μL of this suspension is dispensed per well into a 96-well microtiter plate. After 3 hours of incubation at 37° C./5% C02 an equal volume of detection medium containing 2.5 μM RA was added and subsequently incubated for 7 days at 37° C./5% CO2. After 7 days, LDH activity was determined using the Promega Cytotox 96 Non-Radioactive cytotoxicity assay (Cat. G1780), according the manufacturer's instructions. Cytotoxicity is measured as the ratio of LDH increase in the supernatant divided by the LDH increase in the total cell suspension (sum of the LDH measured in cells and supernatant). Toxicity was determined after 7 days of differentiation with retinoic acid in M17_3TAU(P301 L) cells compared to M17.pcDNA3 cells.
# The M17_3TAU(P301L) cell line makes it possible to assess the ability of novel compounds to inhibit TAU-induced cytotoxicity. […] Compounds were tested for their ability to hamper TAU-induced toxicity at different concentrations, ranging from low non-effective concentrations to high potent concentrations. Afterwards, the dose-dependent inhibition curve was used to calculate their EC50 (Table 3B).
smiles,measurement,value
COc1cccc(CN2CC3(C2)CN(C(=O)CC2CCC(F)(F)CC2)C3)c1 [Cpd B074],EC50,3.61 nM
COc1cccc(CN2CC3(C2)CN(C(=O)CN(C)c2ccccc2)C3)c1 [Cpd B075],EC50,61.3 nM
Cc1cccnc1CN1CC2(C1)CN(C(=O)Cc1ccc(F)c(C(F)(F)F)c1)C2 [Cpd B077],EC50,3.68 nM
Cc1cccnc1CN1CC2(C1)CN(C(=O)Cc1ccc(C(F)(F)F)cc1)C2 [Cpd B078],EC50,12.6 nM
Cc1cccnc1CN1CC2(C1)CN(C(=O)Cc1cccc(C(F)(F)F)c1)C2 [Cpd B079],EC50,13.4 nM
Cc1cccnc1CN1CC2(C1)CN(C(=O)CCC1CCCCC1)C2 [Cpd B081],EC50,9.69 nM
Cc1cccnc1CN1CC2(C1)CN(C(=O)CC1CCCCC1)C2 [Cpd B082],EC50,27.9 nM
Cc1cccnc1CN1CC2(C1)CN(C(=O)CC1CCC(F)(F)CC1)C2 [Cpd B083],EC50,18.9 nM
Cc1cccnc1CN1CC2(C1)CN(C(=O)C(C)(C)Oc1ccc(Cl)cc1)C2 [Cpd B085],EC50,3760 nM
Cc1cccnc1CN1CC2(C1)CN(C(=O)c1cccc3cc[nH]c13)C2 [Cpd B086],EC50,437 nM
Cc1cccnc1CN1CC2(C1)CN(C(=O)C(F)(F)c1ccc(F)cc1)C2 [Cpd B087],EC50,1020 nM
O=C(CCC1CCCCC1)N1CC2(CN(Cc3ccc(F)cc3)C2)C1 [Cpd B089],EC50,2.93 nM
O=C(Cc1ccc(OC(F)(F)F)cc1)N1CC2(CN(Cc3ccc(F)cc3)C2)C1 [Cpd B090],EC50,9.15 nM
O=C(Cc1cccc(C(F)(F)F)c1)N1CC2(CN(Cc3ccc(F)cc3)C2)C1 [Cpd B091],EC50,4.56 nM
N#Cc1ccc(CC(=O)N2CC3(CN(Cc4ccc(F)cc4)C3)C2)cc1 [Cpd B092],EC50,13.9 nM
O=C(Cc1ccccc1F)N1CC2(CN(Cc3ccc(F)cc3)C2)C1 [Cpd B093],EC50,74.6 nM
O=C(COc1ccc(F)cc1)N1CC2(CN(Cc3ccc(F)cc3)C2)C1 [Cpd B098],EC50,71.5 nM
O=C(N1CC2(CN(Cc3ccc(F)cc3)C2)C1)C(F)(F)c1ccc(F)cc1 [Cpd B099],EC50,86 nM
Cc1nc(CN2CC3(C2)CN(C(=O)Cc2cccc(C(F)(F)F)c2)C3)cs1 [Cpd B100],EC50,261 nM
Cc1nc(CN2CC3(C2)CN(C(=O)Cc2ccc(F)c(C(F)(F)F)c2)C3)cs1 [Cpd B101],EC50,76.6 nM
Cc1nc(CN2CC3(C2)CN(C(=O)CC2CCC(F)(F)CC2)C3)cs1 [Cpd B102],EC50,26.4 nM
Cc1nc(CN2CC3(C2)CN(C(=O)COc2ccc(F)cc2)C3)cs1 [Cpd B103],EC50,2000 nM
"O=C(CC1CCC(F)(F)CC1)N1CC2(CN(Cc3ccc(F)cc3C(F)(F)F)C2)C1 [Cpd B104, 2-(4,4-difluorocyclohexyl)-1-(6-(4-fluoro-2-(trifluoromethyl)benzyl)-2,6-diazaspiro[3.3]heptan-2-yl)ethan-1-one]",EC50,1.63 nM
O=C(CC1CCC(F)(F)CC1)N1CC2(CN(Cc3ccc(F)cc3F)C2)C1 [Cpd B105],EC50,2.6 nM
O=C(CC1CCC(F)(F)CC1)N1CC2(CN(Cc3ccc(Cl)cc3F)C2)C1 [Cpd B106],EC50,< 0.19 nM
O=C(CC1CCC(F)(F)CC1)N1CC2(CN(Cc3ccc(F)cc3Cl)C2)C1 [Cpd B107],EC50,< 0.19 nM
O=C(CC1CCC(F)(F)CC1)N1CC2(CN(Cc3ccccc3C(F)(F)F)C2)C1 [Cpd B108],EC50,2.58 nM
O=C(CC1CCC(F)(F)CC1)N1CC2(CN(Cc3ccc(C(F)(F)F)cc3)C2)C1 [Cpd B109],EC50,12.1 nM
O=C(CC1CCC(F)(F)CC1)N1CC2(CN(Cc3c(F)cccc3C(F)(F)F)C2)C1 [Cpd B110],EC50,180 nM
O=C(CC1CCC(F)(F)CC1)N1CC2(CN(Cc3ccccc3OC(F)F)C2)C1 [Cpd B111],EC50,3.55 nM
O=C(CC1CCC(F)(F)CC1)N1CC2(CN(Cc3ccc(Cl)cn3)C2)C1 [Cpd B113],EC50,12.3 nM
O=C(CC1CCC(F)(F)CC1)N1CC2(CN(Cc3ncccc3Cl)C2)C1 [Cpd B114],EC50,13.6 nM
O=C(CC1CCC(F)(F)CC1)N1CC2(CN(Cc3ccc(F)cn3)C2)C1 [Cpd B115],EC50,41.3 nM
Cc1cnc(CN2CC3(C2)CN(C(=O)CC2CCC(F)(F)CC2)C3)s1 [Cpd B116],EC50,72.2 nM
